The structures appear in SMILES notation. ± gives the expanded uncertainty stated by the source.

Results on two compounds are retold here after the NIST ThermoML archive (doi:10.1016/j.jct.2018.07.025).

The conditions of series [1]: Crystal; DTA.
A short description of series [2]: Molar enthalpy of transition or fusion. The note with it: Crystal; DSC.

For `COC(=O)N(O)c1ccccc1COc1ccn(-c2ccc(Cl)cc2)n1`, the Normal melting temperature in series [1] amounted to 143.30 ± 1.1 °C. In addition, the “Molar enthalpy of transition or fusion” value in series [2] came out at 12.3 ± 0.311 kcal/mol.
In the same order, the values of `COC(=O)N(OC)c1ccccc1COc1ccn(-c2ccc(Cl)cc2)n1` [Pyraclostrobin] are 60.60 ± 1.1 °C and 7.22 ± 0.239 kcal/mol.
